Laboratory results reported in ChEMBL document CHEMBL3621049, “Imidazole derivatives show anticancer potential by inducing apoptosis and cellular senescence” (2014).
Active and inactive are the calls of the source.

How the values were obtained:
Format in all cases: functional, cell-based
NCI-H460 = assay: Growth inhibition of human NCI-H460 cells at 10 uM by sulforhodamine B assay
NCI-H322M = assay: Growth inhibition of human NCI-H322M cells at 10 uM by sulforhodamine B assay
HCC 2998 = assay: Growth inhibition of human HCC2998 cells at 10 uM by sulforhodamine B assay
786-0 = assay: Growth inhibition of human 786-0 cells at 10 uM by sulforhodamine B assay
Hs-578T = assay: Growth inhibition of human Hs 578T cells at 10 uM by sulforhodamine B assay
ACHN = assay: Growth inhibition of human ACHN cells at 10 uM by sulforhodamine B assay
MDA-MB-231 = assay: Growth inhibition of human MDA-MB-231 cells at 10 uM by sulforhodamine B assay
Malme-3M = assay: Growth inhibition of human MALME-3M cells at 10 uM by sulforhodamine B assay
MDA-MB-468 = assay: Growth inhibition of human MDA-MB-468 cells at 10 uM by sulforhodamine B assay
OVCAR-5 = assay: Growth inhibition of human OVCAR5 cells at 10 uM by sulforhodamine B assay
IGROV-1 = assay: Growth inhibition of human IGROV1 cells at 10 uM by sulforhodamine B assay
UACC-62 = assay: Growth inhibition of human UACC62 cells at 10 uM by sulforhodamine B assay
T47D = assay: Growth inhibition of human T47D cells at 10 uM by sulforhodamine B assay
COLO 205 = assay: Growth inhibition of human COLO205 cells at 10 uM by sulforhodamine B assay
UO-31 = assay: Growth inhibition of human UO31 cells at 10 uM by sulforhodamine B assay
MCF7 = assay: Growth inhibition of human MCF7 cells at 10 uM by sulforhodamine B assay
HCT-15 = assay: Growth inhibition of human HCT15 cells at 10 uM by sulforhodamine B assay
OVCAR-8 = assay: Growth inhibition of human OVCAR8 cells at 10 uM by sulforhodamine B assay
SNB-75 = assay: Growth inhibition of human SNB75 cells at 10 uM by sulforhodamine B assay
SK-OV-3 = assay: Growth inhibition of human SKOV3 cells at 10 uM by sulforhodamine B assay
SF-295 = assay: Growth inhibition of human SF295 cells at 10 uM by sulforhodamine B assay
PC-3 = assay: Growth inhibition of human PC3 cells at 10 uM by sulforhodamine B assay
HT-29 = assay: Growth inhibition of human HT-29 cells at 10 uM by sulforhodamine B assay
SF-268 = assay: Growth inhibition of human SF268 cells at 10 uM by sulforhodamine B assay
NCI-H226 = assay: Growth inhibition of human NCI-H226 cells at 10 uM by sulforhodamine B assay
TK-10 = assay: Growth inhibition of human TK10 cells at 10 uM by sulforhodamine B assay
SF-539 = assay: Growth inhibition of human SF539 cells at 10 uM by sulforhodamine B assay
A549 = assay: Growth inhibition of human A549/ATCC cells at 10 uM by sulforhodamine B assay
MDA-MB-435 = assay: Growth inhibition of human MDA-MB-435 cells at 10 uM by sulforhodamine B assay
DU-145 = assay: Growth inhibition of human DU145 cells at 10 uM by sulforhodamine B assay
SK-MEL-28 = assay: Growth inhibition of human SK-MEL-28 cells at 10 uM by sulforhodamine B assay
NCI-H23 = assay: Growth inhibition of human NCI-H23 cells at 10 uM by sulforhodamine B assay
M14 = assay: Growth inhibition of human M14 cells at 10 uM by sulforhodamine B assay
UACC-257 = assay: Growth inhibition of human UACC257 cells at 10 uM by sulforhodamine B assay
HL-60(TB) = assay: Growth inhibition of human HL-60(TB) cells at 10 uM by sulforhodamine B assay
KM12 = assay: Growth inhibition of human KM12 cells at 10 uM by sulforhodamine B assay
SN12C = assay: Growth inhibition of human SN12C cells at 10 uM by sulforhodamine B assay
BT-549 = assay: Growth inhibition of human BT549 cells at 10 uM by sulforhodamine B assay
HCT-116 = assay: Growth inhibition of human HCT116 cells at 10 uM by sulforhodamine B assay
SR = assay: Growth inhibition of human SR cells at 10 uM by sulforhodamine B assay
SK-MEL-2 = assay: Growth inhibition of human SK-MEL-2 cells at 10 uM by sulforhodamine B assay
HOP-62 = assay: Growth inhibition of human HOP62 cells at 10 uM by sulforhodamine B assay
U-251 = assay: Growth inhibition of human U251 cells at 10 uM by sulforhodamine B assay
CCRF-CEM = assay: Growth inhibition of human CCRF-CEM cells at 10 uM by sulforhodamine B assay
NCI-H522 = assay: Growth inhibition of human NCI-H522 cells at 10 uM by sulforhodamine B assay
RXF 393 = assay: Growth inhibition of human RXF393 cells at 10 uM by sulforhodamine B assay
CAKI-1 = assay: Growth inhibition of human Caki1 cells at 10 uM by sulforhodamine B assay
SW-620 = assay: Growth inhibition of human SW620 cells at 10 uM by sulforhodamine B assay
MOLT-4 = assay: Growth inhibition of human MOLT4 cells at 10 uM by sulforhodamine B assay
SNB-19 = assay: Growth inhibition of human SNB19 cells at 10 uM by sulforhodamine B assay
SK-MEL-5 = assay: Growth inhibition of human SK-MEL-5 cells at 10 uM by sulforhodamine B assay
RPMI-8226 = assay: Growth inhibition of human RPMI8226 cells at 10 uM by sulforhodamine B assay
OVCAR-4 = assay: Growth inhibition of human OVCAR4 cells at 10 uM by sulforhodamine B assay
K562 = assay: Growth inhibition of human K562 cells at 10 uM by sulforhodamine B assay
A498 = assay: Growth inhibition of human A498 cells at 10 uM by sulforhodamine B assay
OVCAR-3 = assay: Growth inhibition of human OVCAR3 cells at 10 uM by sulforhodamine B assay
LOX IMVI = assay: Growth inhibition of human LOXIMVI cells at 10 uM by sulforhodamine B assay
NCI/ADR-RES = assay: Growth inhibition of human NCI/ADR-RES cells at 10 uM by sulforhodamine B assay
HOP-92 = assay: Growth inhibition of human HOP92 cells at 10 uM by sulforhodamine B assay

Measured: growth inhibition (GI)

COc1ccc(-c2nc(-c3ccccc3)c(-c3ccccc3)n2C2CC2)cc1OC1CCCCC1
active: all assays above
